Results published in US20240199535A1, “DEUTERATED DHODH INHIBITORS” (priority 2021, published 2024).

Columns and labels:
SARS-CoV-2 = experiment: Antiviral activity on SARS-CoV-2, viral replication (YFP) assay; assay type: cell-based; details: Severe acute respiratory syndrome coronavirus 2, read-out: EC50 range
in vivo [1] = details: CC7BL/6J, mouse, po, 5 mg/kg
Method: The pharmacokinetics of the compounds of the present invention was evaluated in 3 male and 3 female mice (CC7BL/6J, 8 week old) after oral cassette dosing. Dose was 5 mg/kg, application volume was 5 mL/kg and vehicle was 5% Solutol, 95% NaCl solution (at 0.9% saline concentration). At each designated time point (0, 0.25, 0.5, 1, 2, 4, 8 h after dosing), 20 μL whole blood were collected from the tail vein into Li-heparin tubes, frozen on dry ice within 1-2 minutes of sampling and stored at −20° C. until processed for LC-MS analysis.

in vitro [2] = details: human, microsomes
in vitro [3] = details: male, rat, microsomes
in vivo [4] = details: Han Wistar, rat
Method: Rats are provided with a catheter in the jugular vein (2-3 days prior to blood sampling). At each designated time point (0, 1, 2, 4, 8 and 24 h after dosing), 100 μL blood were collected into Li-heparin tubes, stored on ice until centrifugation (10 minutes at 3000 g, 4° C.) and plasma was prepared within 45 min after collection, frozen at −20° C. and stored at this temperature until processed for LC-MS analysis.

Compound: [2H]C([2H])([2H])C([2H])([2H])Oc1cccc(-c2cc(F)c(NC(=O)C3=C(C(=O)O)CCC3)c(F)c2)c1 [1/3]
- EC50 (SARS-CoV-2): < 10 µM

Compound: [2H]c1cc([2H])c(-c2ccc(NC(=O)C3=C(C(=O)O)CCC3)c(F)c2)c([2H])c1O [Example 8, 2-((3-Fluoro-3′-hydroxy-[1,1′-biphenyl]-4-yl-2′,4′,6′-d3)carbamoyl)cyclopent-1-ene-1-carboxylic Acid]
- EC50 (SARS-CoV-2): 25 to 50 µM

Compound: [2H]c1c([2H])c(F)c([2H])c(-c2cc(F)c(NC(=O)C3=C(C(=O)O)CCC3)c(F)c2)c1[2H] [1/7]
- EC50 (SARS-CoV-2): < 10 µM

Compound: [2H]C([2H])([2H])Oc1cccc(-c2cc(F)c(NC(=O)C3=C(C(=O)O)COC3)c(F)c2)c1 [Example 11, 4-((3,5-Difluoro-3′-(methoxy-d3)-[1,1′-biphenyl]-4-yl)carbamoyl)-2,5-dihydrofuran-3-carboxylic Acid]
- EC50 (SARS-CoV-2): > 50 µM

Compound: [2H]C([2H])([2H])Oc1cccc(-c2c(F)c(F)c(NC(=O)C3=C(C(=O)O)CCC3)c(F)c2F)c1 [1/2]
- EC50 (SARS-CoV-2): < 10 µM

Compound: [2H]C([2H])([2H])Oc1cccc(-c2ccc(NC(=O)C3=C(C(=O)O)CCC3)c3ccccc23)c1 [12/4]
- EC50 (SARS-CoV-2): 10 to 25 µM

Compound: [2H]C([2H])([2H])Oc1cccc(-c2ccc(NC(=O)C3=C(C(=O)O)CCC3)c(F)c2)c1 [Example 1, 2-((3-Fluoro-3′-(methoxy-d3)-[1,1′-biphenyl]-4-yl)carbamoyl)cyclopent-1-ene-1-carboxylic Acid]
- AUC (in vivo [1]; female): 5740 ng·h/mL
- Cmax (in vivo [1]; female): 3440 ng/mL
- half-life (in vivo [1]; female): 1.6 h
- AUC (in vivo [1]; male): 5110 ng·h/mL
- Cmax (in vivo [1]; male): 4110 ng/mL
- half-life (in vivo [1]; male): 1.7 h
- microsomal CLint (in vitro [2]; both): 0.96 µL/min/mg
- microsomal CLint (in vitro [2]; female): 5.02 µL/min/mg
- microsomal CLint (in vitro [2]; male): 7.69 µL/min/mg
- microsomal CLint (in vitro [3]): 13.4 µL/min/mg
- % AUCextra (in vivo [4]; female, iv, 1 mg/kg): 13%
- AUC(0-inf) (in vivo [4]; female, iv, 1 mg/kg): 80700 ng·h/mL
- AUC(0-t) (in vivo [4]; female, iv, 1 mg/kg): 66200 ng·h/mL
- C0 (in vivo [4]; female, iv, 1 mg/kg): 7010 ng/mL
- Cz (in vivo [4]; female, iv, 1 mg/kg): 943 ng/mL
- Vz/f (in vivo [4]; female, iv, 1 mg/kg): 0.017 L/kg
- t1/2z (in vivo [4]; female, iv, 1 mg/kg): 9.9 h
- tz (in vivo [4]; female, iv, 1 mg/kg): 24 h
- bioavailability (in vivo [4]; female, po): 75.3%
- % AUCextra (in vivo [4]; female, po, 5 mg/kg): 17%
- AUC(0-inf) (in vivo [4]; female, po, 5 mg/kg): 291000 ng·h/mL
- AUC(0-t) (in vivo [4]; female, po, 5 mg/kg): 249000 ng·h/mL
- CL/F (in vivo [4]; female, po, 5 mg/kg): 3.77 mL/min/kg
- Cmax (in vivo [4]; female, po, 5 mg/kg): 19700 ng/mL
- Cz (in vivo [4]; female, po, 5 mg/kg): 3536 ng/mL
- Tmax (in vivo [4]; female, po, 5 mg/kg): 2 h
- Vd/F (in vivo [4]; female, po, 5 mg/kg): 0.016 L/kg
- t1/2z (in vivo [4]; female, po, 5 mg/kg): 9.1 h
- tz (in vivo [4]; female, po, 5 mg/kg): 24 h
- % AUCextra (in vivo [4]; male, iv, 1 mg/kg): 22%
- AUC(0-inf) (in vivo [4]; male, iv, 1 mg/kg): 47900 ng·h/mL
- AUC(0-t) (in vivo [4]; male, iv, 1 mg/kg): 42600 ng·h/mL
- C0 (in vivo [4]; male, iv, 1 mg/kg): 5540 ng/mL
- Cz (in vivo [4]; male, iv, 1 mg/kg): 437 ng/mL
- Vz/f (in vivo [4]; male, iv, 1 mg/kg): 0.01 L/kg
- t1/2z (in vivo [4]; male, iv, 1 mg/kg): 7.9 h
- tz (in vivo [4]; male, iv, 1 mg/kg): 24 h
- bioavailability (in vivo [4]; male, po): 86%
- % AUCextra (in vivo [4]; male, po, 5 mg/kg): 24%
- AUC(0-inf) (in vivo [4]; male, po, 5 mg/kg): 210000 ng·h/mL
- AUC(0-t) (in vivo [4]; male, po, 5 mg/kg): 183000 ng·h/mL
- CL/F (in vivo [4]; male, po, 5 mg/kg): 3.82 mL/min/kg
- Cmax (in vivo [4]; male, po, 5 mg/kg): 14600 ng/mL
- Cz (in vivo [4]; male, po, 5 mg/kg): 1525 ng/mL
- Tmax (in vivo [4]; male, po, 5 mg/kg): 2 h
- Vd/F (in vivo [4]; male, po, 5 mg/kg): 0.008 L/kg
- t1/2z (in vivo [4]; male, po, 5 mg/kg): 6.6 h
- tz (in vivo [4]; male, po, 5 mg/kg): 24 h

Compound: [2H]C([2H])([2H])Oc1nc(-c2cc(F)c(NC(=O)C3=C(C(=O)O)CCC3)c(F)c2)cs1 [1/8]
- EC50 (SARS-CoV-2): 25 to 50 µM

Compound: [2H]C([2H])([2H])Oc1ccccc1-c1cc(F)c(NC(=O)C2=C(C(=O)O)CCC2)c(F)c1 [1/4]
- EC50 (SARS-CoV-2): < 10 µM
